Results: US20230270112A1, “A METHOD OF DI[…] GASEOUS ENVIRONMENT, A LIQUID, OR A SOLID SURFACE” (priority 2020, published 2023)
Where two headings read alike, the source gives them in different places.

Legend:
[1] = system: herpes simplex virus serotype two (HSV-2); assay: Titration by TCID50 assay (incl. guest-host chemistry assay); format: cell-based; conditions: mixed with the virus for 5 minutes, FIG. 3a
[2] = system: respiratory syncytial virus (RSV); assay: Titration by TCID50 assay; format: cell-based; conditions: FIG. 3b
[3] = system: herpes simplex virus serotype two (HSV-2); assay: DNA exposure assay; conditions: FIG. 6
[4] = system: SARS-CoV-2; format: cell-based
[5] = system: herpes simplex virus serotype two (HSV-2); assay: Dose-response (plaque) assay; format: cell-based; conditions: FIG. 4a
[6] = system: respiratory syncytial virus (RSV); assay: Dose-response (plaque) assay; format: cell-based; conditions: FIG. 4b
[7] = system: herpes simplex virus serotype two (HSV-2); assay: Virucidal assay; format: cell-based; conditions: FIG. 5
[8] = system: herpes simplex virus serotype two (HSV-2); assay: Time of addition study; format: cell-based; conditions: FIG. 7
[9] = with cucurbit[7]uril; cited from earlier work

Q: For `O=C1N2CN3C(=O)N4CN5C(=O)N6CN7C(=O)N8CN9C(=O)N%10CN%11C(=O)N%12CN1C1C2N2CN%13C(=O)N(CN%14C(=O)N(CN%15C(=O)N(CN%16C(=O)N(CN%17C(=O)N(CN1C2=O)C%12C%11%17)C%10C9%16)C8C7%15)C6C5%14)C4C3%13` (stereo not shown) [cucurbit[6]uril], which viral titre reduction [1] is on record?
A: lack of viral titre reduction

Q: What about the antiviral effect [2] of the same molecule?
A: ineffective

Q: And the “DNA detected following viral exposure, DNAse and PCR amplification” value [3]?
A: DNA was detected

Q: With cucurbit[7]uril as the molecule, how does the “reduction in viral titre” value ([1]; 20-50 mg/mL) read?
A: approximately 5 log

Q: And the antiviral efficacy [4]?
A: largely ineffective

Q: And the antiviral efficacy ([4]; 50 mg/mL)?
A: highly effective

Q: What about the EC50 [5] of the same molecule?
A: 1270 µg/mL

Q: And the EC50 [6]?
A: 1070 µg/mL

Q: What about the “mode of action (virucidal or virustatic)” value [7] of the same molecule?
A: virucidal

Q: And the viral inhibition ([8]; added after the virus has been exposed to the cells (post-infection))?
A: no viral inhibition

Q: What about the antiviral effect ([8]; added directly to the virus before infection ('during infection')) of the same molecule?
A: an antiviral effect was observed

Q: What about the viral inhibition ([8]; removed prior to viral introduction (pre-treatment)) of the same molecule?
A: no viral inhibition

Q: Which viral titre reduction [1] does the source give for `O=C1N2CN3C(=O)N4CN5C(=O)N6CN7C(=O)N8CN9C(=O)N%10CN%11C(=O)N%12CN%13C(=O)N%14CN%15C(=O)N%16CN1C1C2N2CN%17C(=O)N(CN%18C(=O)N(CN%19C(=O)N(CN%20C(=O)N(CN%21C(=O)N(CN%22C(=O)N(CN%23C(=O)N(CN1C2=O)C%16C%15%23)C%14C%13%22)C%12C%11%21)C%10C9%20)C8C7%19)C6C5%18)C4C3%17` (stereo not shown) [cucurbit[8]uril, Cucurbit[8]uril] here?
A: lack of viral titre reduction

Q: What about the antiviral effect [2] of the same molecule?
A: ineffective

Q: And the “DNA detected following viral exposure, DNAse and PCR amplification” value [3]?
A: No DNA was detected

Q: With `NC12CC3CC(CC(C3)C1)C2` [ADA, 1-Adamantylamine] as the molecule, how does the binding affinity [9] read?
A: 1.7+/−0.8×10^14 M^−1
